In patent publication US8163803B2 (Fundação Oswaldo Cruz—FIOCRUZ, priority 2004, dated 2012):

Legend:
[1] = tested on: cutaneous sites of the dorsal region of adult Wistar rats; assay: Local anesthetic activity, intradermal injection in dorsal skin, response to mechanical stimulation; type: in vivo; conditions: for time of anesthesia compared with lidocaine: doses from 0.5 to 4 μMol/site
Experimental: Female and male Wistar rats, weighing between 200 and 250 g, they came from Oswaldo Cruz Foundation's Center of Laboratory Animal Raising were used. The procedures involving the animals were examined and approved by Oswaldo Cruz Foundation's Committee of Animal Ethics (CEUA-FIOCRUZ, License number 00085-02). After brief anesthesia by exposure to the atmosphere enriched with […] animals were trichotomized dorsal region, where the […] injections with substances for test were performed; doses varied from 0.5 to 4 μMol/site, and vehicule (NaCl 0.9%) (negative control), the final volume was 50 μl. Each animal took six injections and four animals were used for each tested substance. The application points were mechanically estimulated with a tweezer in order to evaluate the integrity of sensitiveness. The site was considered not to be anesthesized whenever after the mechanical stimulation it was observed a local retraction of the skin, according to what had been previously reported. The evaluations began 10 minutes after intradermal injections had been taken, which continued every five minutes until it was obtained the cutaneous retraction response. The values (average±standard error of the mean, SEM) were expressed in terms of “Time of Anesthesia” in minutes.

[2] = tested on: Na^+ currents in GH3 cells; assay: Tonic block of Na+ currents in GH3 cells, whole cell patch clamp; type: cell-based, Rat; conditions: for IC50: GH3 cells, holding potential −80 mV to +60 mV step pulse, read-out: IC50, blockade of Na+ currents
Experimental: Ion channel currents were recorded by means of a patch clamp technique. The cells cultured on the cover glass were placed in a chamber fixed to a microscope stage and continuously perfused with extracellular Saline (A) solution (in mM); 150 NaCl, 5 KCl, 1 MgCl2, 0.01 CaCl2, 1 EGTA, 10 HEPES, 2 BaCl2, 0.1 CdCl2, pH 7.4 at room temperature (22-25° C.) adjusted with NaOH. The cells were observed using phase contrast mode under an inverted microscope (Axiovert 100, Carl Zeiss, Oberkochem, D Germany). Tight-seal (>10 GΩ) whole cell voltage-clamp recordings were performed with an Axopatch-1D amplifier (Axon Instruments, San Mateo, Calif.). […] Fifteen minutes after rupture of the patch membrane, we started to record ion channel currents. Pulse protocols and data acquisition were controlled by Digidata 1320 interface (Axon Instruments, Palo Alto, Calif.), and acquired on a personal computer using Clampex 9 software. The Na^+ current recordings were filtered at 1 kHz and sampled at 8 kHz. About 26% of series resistance was electronically compensated. Drugs were applied to the recording chamber by gravity. Perfusion rate was maintained at 0.8-1.1 ml/min and bath volume was of 50 μl. […] Voltage-gated Na^+ currents were recorded from these cells in the presence or absence of treatment.

[3] = tested on: sensitized experimental animals; assay: Pulmonary eosinophil infiltrate after ovoalbumin aerosol challenge, bronchoalveolar lavage count; type: in vivo; conditions: 5% aerosol, 30 min, with ovoalbumin 1% plus 3 aerosolizations every 3 h; lavage 24 h after challenge
Experimental: The animals were sensitized through a cutaneous injection of a mixture with 50 μg ovoalbumin and 5 mg Al(OH)3, and challenged with ovoalbumin (1%) aerosol for 30 min 14 days afterwards, according to what was previously described. In order to avoid death of animals by anaphylatic asphyxia, all of them were treated intraperitonially with the anti-histaminic difenidramine (30 mg/kg) 30 minutes before being challenged.
Bronchoalveolar Lavage and Eosinophils Counting
All the animals were anesthesized terminally through an intraperitonial injection of pentobarbital (200 mg/kg) 24 h after the antigenic challenge, to wash the bronchoalveolar space according to the techniques previously described. Total leukocyte count were done after dilution of bronchoalveolar lavage samples in Turk liquid and counting in the Neubauer chamber with the assistance of direct-light microscopy. The differential eosinophil count was done also under direct-light microscopy, after centrifugation of samples of the lavage as well as its exposure to specific dyestuff (May-Grunwald-Giemsa dye).
The averages± standard error of the mean of the groups investigated were analyzed based on statistics through the test of variance analysis (ANOVA), followed by the Newman-Keuls-Student test.
Values, expressed in terms of “number of eosinophils×10^6/lavage” are presented as average±SEM in at least 7 animals. In the negative control group, animals previously sensitized were artificially-challenged through exposure to sterile saline (NaCl, 0.9%) aerosol. […] “*” represents the difference statistically significant (P<0.05), when the group treated and the positive control group were compared.

[4] = tested on: isolated ileum of an experimental animal; assay: Anaphylactic contraction of isolated ileum induced by antigen (ovoalbumin); conditions: antigen (10 μg/ml), average ±SEM, at least 3 animals; read-out: Stimulation with antigen IC50
Experimental: (§1) Female and male experimental animals were used, weighing between 300 and 400 g, they came from Oswaldo Cruz Foundation's Center of Laboratory Animal Raising. The procedures involving the animals were examined and approved by Oswaldo Cruz Foundation's Committee of Animal Ethics (CEUA-FIOCRUZ, Licenca no. 00085-02). The animals were sensitized through a subcutanous injection with a mixture of 50 μg ovoalbumin and 5 mg Al(OH)3. From fourteen to thirty days after the sensitization, the experimental, animal was sacrificed in a chamber of carbonic gas to have its abdomen open and the location of the ileocecal valve. At this point, the intestine was sectioned and a segment of the small intestine, about 20 cm (equivalent to the ileum) was carefully removed and internally washed with a warmed solution (37° C.) of Tyrode (Composition in mM) (NaCl 137; KCl 2.7; NaH2PO4 0.42; NaHCO3 11.9; MgCl2 0.5; CaCl2 1.8; glucose 5.6) to remove the fecal content. […].
(§2) About 3-cm ileum fragments were vertically mounted in 10 ml glass cuvettes, immersed in Tyrode's solution at 37° C., aerated with carbogen (O2, 95% and CO2, 5%) and supplemented with atropine according to the standard procedure. The tissue had one of its ends tied to a rod while the other end was coupled with a transductor after the transference from the rod to the cuvette. The contractions were isotonically registered (basal tension of 1 g) with the support of a transductor of displacement-force connected to a computerized system to capture data. After a 30 minute period of balance, each segment was repeatedly stimulated by histamine (1 μM) until response stabilization. To induce anaphylatic contraction, ileum segments from sensitized experimental animals were stimulated by ovoalbumin (10 μg/ml). […]. The results were presented as a percentage of inhibition calculated in relation to the contractive effect obtained from stimulated and non-treated preparations.
(§3) Concentration-response data were adjusted through non-linear regression curves with the assistence of a graphics software (GraphPad Prism, USA). The concentration of an antagonist needed to inhibit the contractive response to inhibit the contractive response after stimulation by histamine or antigen at 50% (IC50) was used to compare the anti-spasmodic potency. The values expressed as an average ± standard error of the mean and statistically analysed through the test of analysis variance (ANOVA), followed by the Newman-Keuls-Student test.

[5] = tested on: isolated ileum of an experimental animal; assay: Contraction of isolated ileum induced by histamine; conditions: histamine (5 μM), average ±SEM, at least 3 animals; read-out: Stimulation with histamine IC50
Experimental: as §1, §2, §3

[6] = tested on: patients; conditions: long-term treatment, nebulized; cited from earlier work

Structure (SMILES): CCN(CC)CC(=O)Nc1ccc(C)cc1C [JM24-1, 2-dyethylamine-2′,4′-acetoxylidide]
- time of anesthesia compared with lidocaine [1]: significantly inferior
- IC50 [2]: 5200 µM
- 50% inhibitory concentration, times higher than lidocaine ([2]; ratio to lidocaine IC50): 29 times
- blocking the accumulation of eosinophils in the bronchoalveolar area [3]: equipotent to lidocaine
- IC50 [4]: 190 ± 40 µM
- IC50 [5]: 310 ± 60 µM

Structure (SMILES): CCN(CC)CC(=O)Nc1cccc(C)c1C [JM23-1, 2-dyethylamine-2′,3′-acetoxylidide]
- time of anesthesia compared with lidocaine [1]: significantly inferior
- IC50 [4]: 330 µM
- IC50 [5]: 380 ± 60 µM

Structure (SMILES): CCN(CC)CC(=O)Nc1c(C)cccc1C [Lidocaine, 1-(2-(dyethylamine)N-dymethylfenyl)-acetamide, reference compound]
- Time of Anesthesia ([1]; 4 μMol/site intradermal, n=4, average±SEM): 168 ± 3 min
- IC50 [2]: 180 µM
- blocking the accumulation of eosinophils in the bronchoalveolar area [3]: clearly sensitive to lidocaine treatment
- IC50 [4]: 1430 ± 90 µM
- IC50 [5]: 1410 ± 120 µM
- patients with relief of asthma symptoms and diminished dependency on steroidal anti-inflammatory treatment [6]: 20 out of 24
